Where a SMILES comes first, the peptide text is derived from it. Bounds are passed on as bounds.

The assay deals with T1, PTB domain/c-erbB2 binding (GST-PTB domain of SHC; c-erbB2 from SKBR3 lysate) (Homo sapiens, UniProt P29353).
T1 construct: GST-PTB domain fusion proteins were expressed from recombinant baculovirus in sf9 cells; made in house; host or cells: Sf9 cells (recombinant baculovirus) for GST-PTB; c-erbB2 endogenous in SKBR3 cell lysate
T1 sequence (P29353 156-341): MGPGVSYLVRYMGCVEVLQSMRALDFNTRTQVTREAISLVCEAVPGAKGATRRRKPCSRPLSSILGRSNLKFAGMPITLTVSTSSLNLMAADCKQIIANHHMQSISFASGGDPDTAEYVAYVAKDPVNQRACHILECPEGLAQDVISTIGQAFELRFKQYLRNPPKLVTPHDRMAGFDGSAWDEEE
Nature of the assay: biochemical. The note with it: Inhibition (relative inhibition scale of IC50).
What is called IC50 is the concentration needed to halve the response being measured. The compound `CC(C)C[C@H](NC(=O)[C@H](CC(N)=O)NC(=O)[C@H](CC(=O)O)NC(=O)[C@H](C)NC(=O)[C@H](C)NC(=O)[C@@H]1CCCN1C(=O)[C@H](CO)NC(=O)[C@H](Cc1ccccc1)NC(=O)[C@H](C)NC(=O)[C@@H]1CCCN1)C(=O)N[C@@H](Cc1ccc(O)cc1)C(=O)N[C@@H](Cc1ccc(OP(=O)(O)O)cc1)C(=O)N[C@@H](Cc1c[nH]c2ccccc12)C(=O)N[C@@H](CC(=O)O)C(=O)N[C@@H](CCC(N)=O)C(=O)N[C@@H](CC(N)=O)C(=O)N[C@@H](CO)C(=O)N[C@@H](CO)C(=O)N[C@@H](CCC(=O)O)C(=O)N[C@@H](CCC(N)=O)C(=O)NCC(=O)O` [PAFSPAADNLY (pY) WDQNSSEQG, PAFSPAADNLY(pY)WDQNSSEQG] (HELM PEPTIDE1{P.A.F.S.P.A.A.D.N.L.Y.[O=C([C@H](Cc1ccc(OP(=O)(O)O)cc1)N[*:1])[*:2]].W.D.Q.N.S.S.E.Q.G}$$$$V2.0) displayed an IC50 of 0.5 to 5 µM.
Then `CC(C)C[C@H](NC(=O)[C@H](CC(N)=O)NC(=O)[C@H](CC(=O)O)NC(=O)[C@H](Cc1ccccc1)NC(=O)[C@H](C)NC(=O)[C@@H]1CCCN1C(=O)[C@H](CO)NC(=O)[C@H](Cc1ccccc1)NC(=O)[C@H](C)NC(=O)[C@@H]1CCCN1)C(=O)N[C@@H](Cc1ccc(O)cc1)C(=O)N[C@@H](Cc1ccc(OP(=O)(O)O)cc1)C(=O)N[C@@H](Cc1c[nH]c2ccccc12)C(=O)N[C@@H](CC(=O)O)C(=O)N[C@@H](CCC(N)=O)C(=O)N[C@@H](CC(N)=O)C(=O)N[C@@H](C)C(=O)N[C@@H](CO)C(=O)N[C@@H](CCC(=O)O)C(=O)N[C@@H](CCC(N)=O)C(=O)NCC(=O)O` [PAFSPAFDNLY (pY) WDQNASEQG, PAFSPAFDNLY(pY)WDQNASEQG] (HELM PEPTIDE1{P.A.F.S.P.A.F.D.N.L.Y.[O=C([C@H](Cc1ccc(OP(=O)(O)O)cc1)N[*:1])[*:2]].W.D.Q.N.A.S.E.Q.G}$$$$V2.0), with 0.5 to 5 µM; and `CC(C)C[C@H](NC(=O)[C@H](CCC(N)=O)NC(=O)[C@H](CC(=O)O)NC(=O)[C@H](Cc1ccccc1)NC(=O)[C@H](C)NC(=O)[C@@H]1CCCN1C(=O)[C@H](CO)NC(=O)[C@H](Cc1ccccc1)NC(=O)[C@H](C)NC(=O)[C@@H]1CCCN1)C(=O)N[C@@H](Cc1ccc(O)cc1)C(=O)N[C@@H](Cc1ccc(OP(=O)(O)O)cc1)C(=O)N[C@@H](Cc1c[nH]c2ccccc12)C(=O)N[C@@H](CC(=O)O)C(=O)N[C@@H](CCC(N)=O)C(=O)N[C@@H](CC(N)=O)C(=O)N[C@@H](CO)C(=O)N[C@@H](CO)C(=O)N[C@@H](CCC(=O)O)C(=O)N[C@@H](CCC(N)=O)C(=O)NCC(=O)O` [PAFSPAFDQLY (pY) WDQNSSEQG] (HELM PEPTIDE1{P.A.F.S.P.A.F.D.Q.L.Y.[O=C([C@H](Cc1ccc(OP(=O)(O)O)cc1)N[*:1])[*:2]].W.D.Q.N.S.S.E.Q.G}$$$$V2.0), with more than 50 µM; and `CC(C)C[C@H](NC(=O)[C@H](CC(N)=O)NC(=O)[C@H](CC(=O)O)NC(=O)[C@H](Cc1ccccc1)NC(=O)[C@H](C)NC(=O)[C@@H]1CCCN1C(=O)[C@H](CO)NC(=O)[C@H](Cc1ccccc1)NC(=O)[C@H](C)NC(=O)[C@@H]1CCCN1)C(=O)N[C@@H](Cc1ccc(O)cc1)C(=O)N[C@@H](Cc1ccc(OP(=O)(O)O)cc1)C(=O)N[C@@H](Cc1c[nH]c2ccccc12)C(=O)N[C@@H](CC(=O)O)C(=O)N[C@@H](C)C(=O)N[C@@H](CC(N)=O)C(=O)N[C@@H](CO)C(=O)N[C@@H](CO)C(=O)N[C@@H](CCC(=O)O)C(=O)N[C@@H](CCC(N)=O)C(=O)NCC(=O)O` [PAFSPAFDNLY (pY) WDANSSEQG, PAFSPAFDNLY(pY)WDANSSEQG] (HELM PEPTIDE1{P.A.F.S.P.A.F.D.N.L.Y.[O=C([C@H](Cc1ccc(OP(=O)(O)O)cc1)N[*:1])[*:2]].W.D.A.N.S.S.E.Q.G}$$$$V2.0), with 0.5 to 5 µM.
Then `CC(C)C[C@H](NC(=O)[C@H](CC(N)=O)NC(=O)[C@H](CC(=O)O)NC(=O)[C@H](Cc1ccccc1)NC(=O)[C@H](C)NC(=O)[C@@H]1CCCN1C(=O)[C@H](CO)NC(=O)[C@H](Cc1ccccc1)NC(=O)[C@H](C)NC(=O)[C@@H]1CCCN1)C(=O)N[C@@H](Cc1ccc(O)cc1)C(=O)N[C@@H](Cc1ccc(OP(=O)(O)O)cc1)C(=O)N[C@@H](Cc1c[nH]c2ccccc12)C(=O)N[C@@H](CC(=O)O)C(=O)N[C@@H](CCC(N)=O)C(=O)N[C@@H](C)C(=O)N[C@@H](CO)C(=O)N[C@@H](CO)C(=O)N[C@@H](CCC(=O)O)C(=O)N[C@@H](CCC(N)=O)C(=O)NCC(=O)O` [PAFSPAFDNLY (pY) WDQASSEQG, PAFSPAFDNLY(pY)WDQASSEQG] (HELM PEPTIDE1{P.A.F.S.P.A.F.D.N.L.Y.[O=C([C@H](Cc1ccc(OP(=O)(O)O)cc1)N[*:1])[*:2]].W.D.Q.A.S.S.E.Q.G}$$$$V2.0), with 0.5 to 5 µM; and `CC(C)C[C@H](NC(=O)[C@H](C)NC(=O)[C@H](CC(=O)O)NC(=O)[C@H](Cc1ccccc1)NC(=O)[C@H](C)NC(=O)[C@@H]1CCCN1C(=O)[C@H](CO)NC(=O)[C@H](Cc1ccccc1)NC(=O)[C@H](C)NC(=O)[C@@H]1CCCN1)C(=O)N[C@@H](Cc1ccc(O)cc1)C(=O)N[C@@H](Cc1ccc(OP(=O)(O)O)cc1)C(=O)N[C@@H](Cc1c[nH]c2ccccc12)C(=O)N[C@@H](CC(=O)O)C(=O)N[C@@H](CCC(N)=O)C(=O)N[C@@H](CC(N)=O)C(=O)N[C@@H](CO)C(=O)N[C@@H](CO)C(=O)N[C@@H](CCC(=O)O)C(=O)N[C@@H](CCC(N)=O)C(=O)NCC(=O)O` [PAFSPAFDALY (pY) WDQNSSEQG] (HELM PEPTIDE1{P.A.F.S.P.A.F.D.A.L.Y.[O=C([C@H](Cc1ccc(OP(=O)(O)O)cc1)N[*:1])[*:2]].W.D.Q.N.S.S.E.Q.G}$$$$V2.0), with more than 50 µM.
Then `CC(C)C[C@H](NC(=O)[C@H](CC(N)=O)NC(=O)[C@H](CC(=O)O)NC(=O)[C@H](Cc1ccccc1)NC(=O)[C@H](C)NC(=O)[C@@H]1CCCN1C(=O)[C@H](CO)NC(=O)[C@H](Cc1ccccc1)NC(=O)[C@H](C)NC(=O)[C@@H]1CCCN1)C(=O)N[C@@H](C)C(=O)N[C@@H](Cc1ccc(O)cc1)C(=O)N[C@@H](Cc1ccc(OP(=O)(O)O)cc1)C(=O)N[C@@H](Cc1c[nH]c2ccccc12)C(=O)N[C@@H](CC(=O)O)C(=O)N[C@@H](CCC(N)=O)C(=O)N[C@@H](CC(N)=O)C(=O)N[C@@H](CO)C(=O)N[C@@H](CO)C(=O)N[C@@H](CCC(=O)O)C(=O)N[C@@H](CCC(N)=O)C(=O)NCC(=O)O` [PAFSPAFDNLAY (pY) WDQNSSEQG] (HELM PEPTIDE1{P.A.F.S.P.A.F.D.N.L.A.Y.[O=C([C@H](Cc1ccc(OP(=O)(O)O)cc1)N[*:1])[*:2]].W.D.Q.N.S.S.E.Q.G}$$$$V2.0), with 0.5 to 5 µM; and `CC(C)C[C@H](NC(=O)[C@H](CC(N)=O)NC(=O)[C@H](CC(=O)O)NC(=O)[C@H](Cc1ccccc1)NC(=O)[C@H](C)NC(=O)[C@@H]1CCCN1C(=O)[C@H](CO)NC(=O)[C@H](Cc1ccccc1)NC(=O)[C@H](C)NC(=O)[C@@H]1CCCN1)C(=O)N[C@@H](Cc1ccc(O)cc1)C(=O)N[C@@H](Cc1ccc(OP(=O)(O)O)cc1)C(=O)N[C@@H](Cc1c[nH]c2ccccc12)C(=O)N[C@@H](CC(=O)O)C(=O)N[C@@H](CC(=O)O)C(=O)N[C@@H](CC(N)=O)C(=O)N[C@@H](CO)C(=O)N[C@@H](CO)C(=O)N[C@@H](CCC(=O)O)C(=O)N[C@@H](CCC(N)=O)C(=O)NCC(=O)O` [PAFSPAFDNLY (pY) WDDNSSEQG, PAFSPAFDNLY(pY)WDDNSSEQG] (HELM PEPTIDE1{P.A.F.S.P.A.F.D.N.L.Y.[O=C([C@H](Cc1ccc(OP(=O)(O)O)cc1)N[*:1])[*:2]].W.D.D.N.S.S.E.Q.G}$$$$V2.0), with 0.5 to 5 µM.

(Values after patent US20020156236A1, “Binding sites for phosphotyrosine binding domains” (priority 1995, published 2002).)
